This note sets out measurements from patent US6090834A, “Substituted oxazoles for the treatment of inflammation” (G.D. Searle & Co., priority 1998, dated 2000).

Experiment [1] has as its system COX-2. The experiment is described as follows: COX-2 activity in vitro (PGE2 formed, ELISA). The class given is biochemical, human or murine. The following applies: recombinant enzyme, arachidonic acid 10 μM, pH 8.0; read-out: COX II ID50. On the procedure:
(§1) Evaluation of COX I and COX II activity in vitro
(§2) The COX-2 inhibition activity of the compounds of this invention illustrated in the Examples was determined by the following methods. a. Preparation of recombinant COX baculoviruses
(§3) Recombinant COX-1 and COX-2 were prepared as described by Gierse et al, [J. Biochem., 305, 479-84 (1995)]. A 2.0 kb fragment containing the coding region of either human or murine COX-1 or human or murine COX-2 was cloned into a BamH1 site of the baculovirus transfer vector pVL1393 (Invitrogen) to generate the baculovirus transfer vectors for COX-1 and COX-2 in a manner similar to the method of D. R. O'Reilly et al (Baculovirus Expression Vectors: A Laboratory Manual (1992)). Recombinant baculoviruses were isolated by transfecting 4 μg of baculovirus transfer vector DNA into SF9 insect cells (2×10^8) along with 200 ng of linearized baculovirus plasmid DNA by the calcium phosphate method. See M. D. Summers and G. E. Smith, A Manual of Methods for Baculovirus vectors and Insect Cell Culture Procedures, Texas Agric. Exp. Station Bull. 1555 (1987). Recombinant viruses were purified by three rounds of plaque purification and high titer (10^7 -10^8 pfu/ml) stocks of virus were prepared. For large scale production, SF9 insect cells were infected in 10 liter fermentors (0.5×10^6 /ml) with the recombinant baculovirus stock such that the multiplicity of infection was 0.1. After 72 hours the cells were centrifuged and the cell pellet homogenized in Tris/Sucrose (50 mM: 25%, pH 8.0) containing 1% 3-[(3-cholamidopropyl)dimethylammonio]-1-propanesulfonate (CHAPS). The homogenate was centrifuged at 10,000×G for 30 minutes, and the resultant supernatant was stored at -80° C. before being assayed for COX activity. […]
(§4) b. Assay for COX-1 and COX-2 activity
(§5) COX activity was assayed as PGE2 formed/μg protein/time using an ELISA to detect the prostaglandin released. CHAPS-solubilized insect cell membranes containing the appropriate COX enzyme were incubated in a potassium phosphate buffer (50 mM, pH 8.0) containing epinephrine, phenol, and heme with the addition of arachidonic acid (10 μM). Compounds were pre-incubated with the enzyme for 10-20 minutes prior to the addition of arachidonic acid. Any reaction between the arachidonic acid and the enzyme was stopped after ten minutes at 37° C./room temperature by transferring 40 μl of reaction mix into 160 μl ELISA buffer and 25 μM indomethacin. The PGE2 formed was measured by standard ELISA technology (Cayman Chemical).

The subject of experiment [2] is COX-1. The experiment is described as follows: COX-1 activity in vitro (PGE2 formed, ELISA). The class given is biochemical, human or murine. The following applies: recombinant enzyme, arachidonic acid 10 μM, pH 8.0; read-out: COX-1 ID50. On the procedure: as §1, §2, §3, §4, §5
For orientation: An ELISA detects its analyte on a solid surface through an enzyme-linked reagent.

For `NS(=O)(=O)c1ccc(-c2oc(CC(=O)O)nc2-c2ccccc2)cc1` [Example 38, [5-(4-aminosulfonylphenyl)-4-phenyl]-2-oxazoleaceticacid], the figures for the IC50 in experiment [1] and in experiment [2] were less than 0.1 µM and 72 µM, respectively.

With `CCOC(=O)c1cccc(Oc2nc(-c3ccccc3)c(-c3ccc(S(N)(=O)=O)cc3)o2)c1` [Example 57, ethyl 3-[[5-(4-aminosulfonylphenyl)-4-phenyl-2-oxazolyl]oxy]benzoate], the IC50 in experiment [1] was less than 0.1 µM; in experiment [2], 3.2 µM.

`CS(=O)(=O)c1ccc(-c2oc(-c3ccccc3)nc2C2CCCCC2)cc1` [Example 25, 4-(cyclohexyl)-5-[4-(methylsulfonyl)phenyl]-2-phenyloxazole]: the IC50 is 0.5 µM in experiment [1] and greater than 10 µM in experiment [2].

With `NS(=O)(=O)c1ccc(-c2nc(C(Br)C(=O)O)oc2-c2ccc(Cl)cc2)cc1` (stereo not drawn) [Example 67], the IC50 in experiment [1] came to 0.8 µM; in experiment [2], 33 µM.

As for `NS(=O)(=O)c1ccc(-c2nc(C(F)(F)F)oc2-c2ccc(Cl)cc2)cc1` [Example 59, 4-[5-(4-chlorophenyl)-2-trifluoromethyl-4-oxazolyl]benzenesulfonamide], the IC50 was less than 0.1 µM in experiment [1] and 0.4 µM in experiment [2].

As to `CCOC(=O)Cc1nc(-c2ccc(S(N)(=O)=O)cc2)c(-c2ccc(OC)c(F)c2)o1` [Example 34, ethyl [4-(4-aminosulfonylphenyl)-5-(3-fluoro-4-methoxyphenyl)]-2-oxazoleacetate], the IC50 in experiment [1] was less than 0.1 µM; in experiment [2], 0.2 µM.

For `COc1ccc(-c2oc(C)nc2-c2ccc(S(N)(=O)=O)cc2)cc1F` [Example 69], the IC50 in experiment [1] amounted to 0.5 µM; in experiment [2], 79 µM.

Regarding `NS(=O)(=O)c1ccc(-c2oc(C(F)(F)F)nc2-c2ccccc2)cc1` [Example 64, 4-[4-phenyl-2-trifluoromethyl-5-oxazolyl]benzenesulfonamide], the IC50 in experiment [1] was less than 0.1 µM; in experiment [2], 1.1 µM.

With `CN(C)c1nc(-c2ccccc2)c(-c2ccc(S(N)(=O)=O)cc2)o1` [Example 58, 4-[2-(N,N-dimethylamino)-4-phenyl-5-oxazolyl]benzenesulfonamide], the IC50 is less than 0.1 µM in experiment [1] and 31 µM in experiment [2].

Consider `Cc1nc(-c2ccccc2)c(-c2ccc(S(N)(=O)=O)cc2)o1` [Example 51, 4-[2-methyl-4-phenyl-5-oxazolyl]benzenesulfonamide], for which the results for the IC50 in experiment [1] and in experiment [2] were less than 0.1 µM and 14 µM, respectively.

As for `NS(=O)(=O)c1ccc(-c2nc(CC(=O)O)oc2-c2ccc(F)c(F)c2)cc1` [Example 41], the IC50 in experiment [1] was 60.7 µM; in experiment [2], greater than 100 µM.

For the compound `NS(=O)(=O)c1ccc(-c2nc(CC(=O)O)oc2-c2ccc(Cl)c(Cl)c2)cc1` [Example 40, [4-(4-aminosulfonylphenyl)-5-(3.4-dichlorophenyl)]-2-oxazoleacetic acid], the figures for the IC50 in experiment [1] and in experiment [2] were less than 0.1 µM and 26 µM, respectively.

Take `NS(=O)(=O)c1ccc(-c2oc(Oc3c(F)c(F)c(F)c(F)c3F)nc2-c2ccccc2)cc1` [Example 54, 4-[2-(2,3,4,5,6-pentafluorophenoxy)-4-phenyl-5-oxazolyl]benzenesulfonamide]: the IC50 in experiment [1] was less than 0.1 µM; in experiment [2], 3 µM.

As to `NS(=O)(=O)c1ccc(-c2ocnc2-c2ccccc2)cc1` [Example 44, 4-[4-phenyl-5-oxazolyl]benzenesulfonamide], the IC50 in experiment [1] was 79 µM; in experiment [2], greater than 100 µM.

Regarding `NS(=O)(=O)c1ccc(-c2oc(CO)nc2-c2ccccc2)cc1` [Example 75, 4-[2-hydroxymethyl-4-phenyl-5-oxazolyl]benzenesulfonamide], the IC50 in experiment [1] is less than 0.1 µM; in experiment [2], greater than 100 µM.

On to “4-[2-methylsulfinyl)-4-phenyl-5-oxazolyl]benzenesulfonamide [Example 52]”, for which the IC50 in experiment [2] came to 35 µM.

`NS(=O)(=O)c1ccc(-c2oc(CC(=O)O)nc2-c2ccc(Cl)cc2)cc1` [Example 36, [5-(4-aminosulfonylphenyl)-4-(4-chlorophenyl)]-2-oxazoleacetic acid]: the IC50 in experiment [1] came out at 1.4 µM; in experiment [2], 24.7 µM.

Consider `NS(=O)(=O)c1ccc(-c2oc(SCC(=O)O)nc2-c2ccccc2)cc1` [Example 48, 5-(4-aminosulfonylphenyl)-4-phenyl-2-oxazolemercaptoacetic acid], for which the IC50 worked out at 2.1 µM in experiment [1] and 0.3 µM in experiment [2].

In the case of `CCOC(=O)c1ccccc1Oc1nc(-c2ccccc2)c(-c2ccc(S(N)(=O)=O)cc2)o1` [Example 56, ethyl 2-[[5-(4-aminosulfonylphenyl)-4-phenyl-2-oxazolyl]oxy]benzoate], the IC50 was less than 0.1 µM in experiment [1] and 4.5 µM in experiment [2].

As to `NS(=O)(=O)c1ccc(-c2nc(C(F)(F)F)oc2-c2ccc(F)c(F)c2)cc1` [Example 42, 4-[5-(3.4-difluorophenyl)-2-trifluoromethyl-4-oxazolyl]benzenesulfonamide], the IC50 is less than 0.1 µM in experiment [1] and 11.4 µM in experiment [2].

Regarding “4-[2-(methylsulfonyl)-4-phenyl-5-oxazolyl]benzenesulfonamide [Example 53]”, in experiment [1], the IC50 amounted to 0.5 µM.

On to `CCOC(=O)C(Cc1ccccc1)c1nc(-c2ccc(F)cc2)c(-c2ccc(S(C)(=O)=O)cc2)o1` (stereo not drawn) [Example 33], for which the values for the IC50 in experiment [1] and in experiment [2] were 0.05 µM and 3.1 µM, respectively.

Turning to `Cc1nc(-c2ccc(S(C)(=O)=O)cc2)c(-c2ccc(F)cc2)o1` [Example 14, 5-(4-Fluorophenyl)-2-methyl-4-[4-(methylsulfonyl)phenyl]oxazole], the IC50 is greater than 10 µM in experiment [1] and greater than 30 µM in experiment [2].

On to `NS(=O)(=O)c1ccc(-c2oc(Oc3cccc(Cl)c3)nc2-c2ccccc2)cc1` [Example 47], for which the IC50 was less than 0.1 µM in experiment [1] and 1 µM in experiment [2].

As to `NS(=O)(=O)c1ccc(-c2oc(Cl)nc2-c2ccccc2)cc1` [Example 45, 4-[2-chloro-4-phenyl-5-oxazolyl]benzenesulfonamide], the IC50 in experiment [1] was less than 0.1 µM; in experiment [2], 6.5 µM.

Consider `NS(=O)(=O)c1ccc(-c2oc(S)nc2-c2ccccc2)cc1` [Example 46, 4-[2-mercapto-4-phenyl-5-oxazolyl]benzenesulfonamide], for which the IC50 in experiment [1] was 0.5 µM; in experiment [2], 1.7 µM.

As for `COC(=O)CCc1nc(-c2ccc(S(C)(=O)=O)cc2)c(-c2ccc(F)cc2)o1` [Example 15, Methyl 3-[5-(4-fluorophenyl)-4-[4-(methylsulfonyl)phenyl]]-2-oxazolepropanoate], the IC50 in experiment [1] is 0.2 µM; in experiment [2], greater than 30 µM.

With `CSc1nc(-c2ccccc2)c(-c2ccc(S(N)(=O)=O)cc2)o1` [Example 50, 4-[2-Methylthio-4-phenyl-5-oxazolyl]benzenesulfonamide], the IC50 is less than 0.1 µM in experiment [1] and 7.4 µM in experiment [2].

Consider `COc1c(F)cc(-c2oc(C(F)(F)F)nc2-c2ccc(S(N)(=O)=O)cc2)cc1Br` [Example 71, 4-[5-(3-bromo-4-methoxy-5-fluorophenyl)-2-trifluoromethyl-4-oxazolyl]benzenesulfonamide], for which the figures for the IC50 in experiment [1] and in experiment [2] were 0.1 µM and 51 µM, respectively.

On to `CS(=O)(=O)c1ccc(-c2oc(CCC3CCCCC3)nc2-c2ccc(F)cc2)cc1` [Example 32, 2-(2-cyclohexylethyl)-4-(4-fluorophenyl)-5-[4-(methylsulfonyl)phenyl]oxazole], for which the IC50 in experiment [1] was less than 0.1 µM; in experiment [2] it was 15.9 µM.

On to `NS(=O)(=O)c1ccc(-c2nc(CC(=O)O)oc2-c2ccc(Cl)cc2)cc1` [Example 37, [4-(4-aminosulfonylphenyl)-5-(4-chlorophenyl)]-2-oxazoleacetic acid], for which the results for the IC50 in experiment [1] and in experiment [2] were 7 µM and 3.4 µM, respectively.

For `NS(=O)(=O)c1ccc(-c2nc(CC(=O)O)oc2-c2ccc(F)c(Cl)c2)cc1` [Example 39, [4-(4-aminosulfonylphenyl)-5-(3-chloro-4-fluorophenyl)]-2-oxazoleacetic acid], the IC50 in experiment [1] is 79 µM; in experiment [2], greater than 100 µM.

For `COCc1nc(-c2ccccc2)c(-c2ccc(S(N)(=O)=O)cc2)o1` [Example 73, 4-[2-methoxymethyl-4-phenyl-oxazolyl]benzenesulfonamide], the IC50 in experiment [1] was less than 0.1 µM; in experiment [2], 47.5 µM.

As to `NS(=O)(=O)c1ccc(-c2oc(OCC(F)(F)F)nc2-c2ccccc2)cc1` [Example 49], the IC50 is less than 0.1 µM in experiment [1] and 4.1 µM in experiment [2].
